The source of these data is publication PMC6802093, “Structural characterization of HypX responsible for CO biosynthesis in the maturation of NiFe-hydrogenase” (Communications Biology, 2019).

Assay [1] addresses A. aeolicus HypC (Aquifex aeolicus). In words: SEC; Superdex75 10/300GL, 50 mM Tris-HCl (pH 8.0), 200 mM NaCl, 1 mM DTT; HypC alone, HypD alone, and HypC and HypD mixed in equal molar amount; apparent masses. A general note: SEC sorts molecules by how far they enter the pores of the column.
In assay [2] the target is HypC/HypD complex (A. aeolicus) (Aquifex aeolicus) (UniProt O67225). In words: SEC; Superdex200 10/300GL, 50 mM Tris-HCl (pH 8.0), 200 mM NaCl, 1 mM DTT; HypC, HypD and HypX mixed in equal molar amount; apparent mass.
Assay [3] addresses T1, HypX (Aquifex aeolicus, UniProt O67224).
T1 construct: gene hoxX; residues up to 562 described; acid-denatured mass 67,531 Da; monomer; N-terminal domain 1-270, C-terminal domain 289-542
In words: X-ray crystallography, crystal soaking. In kind it is binding. The conditions noted are these: Form I crystals soaked with THF; N-terminal domain, chain A only.

The target of assay [4] is T2, HypX (Aquifex aeolicus, UniProt O67224, A392F/I419F).
T2 construct: gene hoxX; residues up to 562 described; acid-denatured mass 67,531 Da; monomer; N-terminal domain 1-270, C-terminal domain 289-542
T2 sequence (O67224 entry or part of it A392F/I419F): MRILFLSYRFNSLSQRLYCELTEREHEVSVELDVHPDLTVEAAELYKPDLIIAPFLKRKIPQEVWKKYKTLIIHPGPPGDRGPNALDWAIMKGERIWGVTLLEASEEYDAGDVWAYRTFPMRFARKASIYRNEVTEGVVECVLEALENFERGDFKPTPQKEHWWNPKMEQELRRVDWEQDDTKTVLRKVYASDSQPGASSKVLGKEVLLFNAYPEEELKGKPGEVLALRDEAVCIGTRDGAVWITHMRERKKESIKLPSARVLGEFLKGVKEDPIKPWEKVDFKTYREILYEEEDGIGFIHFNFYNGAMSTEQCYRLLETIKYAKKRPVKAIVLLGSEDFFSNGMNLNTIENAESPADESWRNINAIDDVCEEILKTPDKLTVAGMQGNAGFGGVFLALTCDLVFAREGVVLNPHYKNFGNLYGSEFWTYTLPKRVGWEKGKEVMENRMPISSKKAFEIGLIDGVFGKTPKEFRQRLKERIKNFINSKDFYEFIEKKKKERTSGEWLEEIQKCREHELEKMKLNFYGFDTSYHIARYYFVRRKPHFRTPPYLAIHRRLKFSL
In words: X-ray crystallography, crystal soaking. The format is binding. The conditions noted are these: CoA also bound, extended conformation; N-terminal region of cavity.

In assay [5] the target is T3, HypX (Aquifex aeolicus, UniProt O67224, Q15A/R131A/S194A/Q195A/N306A/R542A).
T3 construct: gene hoxX; residues up to 562 described; acid-denatured mass 67,531 Da; monomer; N-terminal domain 1-270, C-terminal domain 289-542
T3 sequence (O67224 entry or part of it Q15A/R131A/S194A/Q195A/N306A/R542A): as the sequence (O67224 entry or part of it A392F/I419F) above, with Q15A, R131A, S194A, Q195A, N306A, F392A, F419I, R542A counted along it
In words: native MS. In kind it is binding. The following applies: non-denaturing, 500 mM ammonium acetate pH 6.8; co-purified from E. coli; CoA absent in crystal structure 6J1H.

The target of assay [6] is T4, HypX (Aquifex aeolicus, UniProt O67224, R9A/Q15A/R131A/R542A).
T4 construct: gene hoxX; residues up to 562 described; acid-denatured mass 67,531 Da; monomer; N-terminal domain 1-270, C-terminal domain 289-542
T4 sequence (O67224 entry or part of it R9A/Q15A/R131A/R542A): as the sequence (O67224 entry or part of it A392F/I419F) above, with R9A, Q15A, R131A, F392A, F419I, R542A counted along it
In words: X-ray crystallography. The format is binding. The conditions noted are these: co-purified from E. coli; folded conformation.

For assay [7], the target named is T1, HypX. In words: X-ray crystallography; native MS. In kind it is binding. The conditions noted are these: co-purified from E. coli, none added; non-covalent; folded conformation, C-terminal part of cavity; also Form II crystal 6J1E.
The target of assay [8] is T2, HypX. In words: X-ray crystallography. The format is binding. The conditions noted are these: co-purified from E. coli; extended conformation, without THF (THF-bound structure 6J1J also holds CoA).

T1 sequence (O67224 entry or part of it): as the sequence (O67224 entry or part of it A392F/I419F) above, with F392A, F419I counted along it

Consider A. aeolicus HypC (natural protein), for which, in assay [1], the stoichiometry N amounted to 2.

Turning to HypX from Aquifex aeolicus (enzyme), the stoichiometry N in assay [2] stood at 1.

With `Nc1nc2c(c(=O)[nH]1)N[C@@H](CNc1ccc(C(=O)N[C@@H](CCC(=O)O)C(=O)O)cc1)CN2` [THF], the figures for the “X-ray crystallography, crystal soaking” value on HypX [3] and on HypX [4] were “We obtained HypX-THF complex by soaking Form I HypX crystals with THF” and “THF is bound at the N-terminal region of the cavity at the same position”, respectively.

For `CC(C)(COP(=O)(O)OP(=O)(O)OC[C@H]1O[C@@H](n2cnc3c(N)ncnc32)[C@H](O)[C@@H]1OP(=O)(O)O)[C@@H](O)C(=O)NCCC(=O)NCCS` [CoA], the “native MS” value at HypX [5] was “showed two MS peaks due to apo (CoA-free) and holo (CoA-bound) form”. The X-ray crystallography entry at HypX [6] is “this variant binds CoA with the folded conformation as is the case of wild-type”; at HypX [8], “CoA is able to adopt the extended conformation in the A392F-I419F variant”. Besides, at HypX [7], the “X-ray crystallography; native MS” value is reported as “HypX binds CoA constitutively with a high binding affinity”.

One may read the stoichiometry N as a count of units in the complex or per binding partner.
